The source of these data is patent publication US20220056018A1, “SREBP INHIBITORS COMPRISING A THIOPHENE CENTRAL RING” (Capulus Therapeutics, LLC, priority 2019, published 2022).

Data set [1] can be described thus: Stability in mouse liver microsomes. The class given is in vitro ADME. As for the experimental part: (§1) Compounds were evaluated for stability in human liver microsomes. A 10 mM stock solution of the compound being evaluated was prepared in DMSO and diluted with water:acetonitrile (1:1) to a concentration of 1 mM. A working concentration of 100 μM was prepared by further dilution with water:acetonitrile (1:1). To make the preincubation mixture, 2.5 μL of the diluted compound was combined with 75 μL of human liver microsomes at 3.33 mg/mL, and 85 μL of 100 mM potassium phosphate buffer, and this mixture was pre-incubated for 10 min at 37° C. To make the 60 minute mixture without cofactor, 32.5 μL of the preincubation mixture was combined with 17.5 μL of 100 mM potassium phosphate buffer and incubated for 60 min at 37° C. To make the 0 min sample with cofactor (NADPH), 16.25 μL of the preincubation mixture was combined with 200 μL of acetonitrile containing internal standard and 8.75 μL of cofactor (NADPH). To make the incubation mixture, 62 μL of cofactor (2.85 mM) was combined with the remaining incubation mixture, and incubated for 60 min at 37° C. To prepare the sample mixture to be evaluated, 25 μL incubation mixture was combined with 200 μL of acetonitrile containing internal standard and vortexed for 5 min at 1200 rpm, then centrifuged for 10 min at 4000 rpm. The supernatant was diluted 2 fold with water and injected on LC-MS/MS. The sample mixture was evaluated by LC-MS/MS using 10 mM ammonium acetate with 0.100 FA as the aqueous mobile phase, and methanol as the organic mobile phase.
Half-Life Mouse Microsomes:
Compounds were evaluated in mouse liver microsomes following a similar procedure as described above for human liver microsomes. A similar procedure could be used to evaluate compounds in rat liver microsomes.
(Liver microsomes are a subcellular fraction often used to study metabolism.)

Data set [2] is described as follows: Stability in human liver microsomes. The class given is in vitro ADME. Particulars: 37° C., NADPH. As for the experimental part: Half-Life Human Microsomes:
as §1

In data set [3] the test system is SREBP. The experiment in a line: Reporter Screening Assay (SRE-luciferase reporter, HepG2). It counts as cell-based. The following applies: Homo sapiens; SRE-luciferase reporter HepG2 cells, 24 hours, 0.01 uM to 10 uM; read-out: I: Reporter Screening Assay (Ave EC50 (nM)). On the procedure: Reporter Screening Assay: This assay was used to evaluate the effect on transcriptional activity SREBP of selected compounds using an SRE-luciferase reporter construct. On day 1, 10,000 cells were seeded in a 96 well (white) plate as per the plate map in Growth media without antibiotics. Cells were incubated at 37° C. for 8 hours. After 8 hours, cells were washed with DPBS for complete removal of FBS. DPBS was completely removed and Growth media was replaced with phenol free treatment medium (90 μl) with different FBS concentrations. The cells were then incubated at 37° C. for 24 hours with varying doses (0.01 uM to 10 uM) of compounds. Then a Luciferase assay was performed.
Reagents for performing Luciferase assay were stored at −20° C. To a tube of lyophilized assay substrate was added 1 mL Substrate Solvent and mixed well. The Substrate tube after reconstitution was covered with aluminum foil so as to keep it protected from light. The assay buffer was thawed to room temperature. To 20 mL Assay Buffer was added 200 μL of reconstituted 100× Substrate and mixed well. The reconstituted substrate as well as the assay solution (buffer+substrate) was protected from light throughout the procedure by keeping it covered with aluminum foil. Using a multi-channel pipette, 100 μL Assay Solution (buffer+substrate) was added directly to each sample well in Plate 1, which was incubated for 30 min (plate was covered with aluminum foil). After 30 min incubation, the plate was read for total luminescence. Each well was read for 2 seconds in a plate luminometer. (Microplate reader Envision Microplate reader from Perkin Elmer). Precaution was taken to incubate plate exactly for 30 min prior to reading on the plate reader.
SREBPv1 Reporter cell line: HepG2—#32251. Growth Medium: MEM (Corning 10-010), 10% FBS, 1% GlutaMax (Invitrogen Catalog #35050061), […] (Invitrogen Catalog # A1113803) and 1% Penicillin-Streptomycin (Pen-Strep). Treatment Media: Phenol-free MEM (Invitrogen Catalog #51200-038) and 1% GlutaMax (Invitrogen Catalog #35050061). Luciferase Assay: LightSwitch Luciferase Assay Kit (Catalog #32032). LDH assay: Pierce LDH Cytotoxicity Assay Kit (Catalog # SD249616).
(In a reporter assay the amount or activity of a reporter protein is the signal.)

For `CC(C)(C)c1cc(-c2csc(-c3ccc(S(C)(=O)=O)cc3)c2)ccn1` [Compound I-8723, 2-(tert-butyl)-4-(5-(4-(methylsulfonyl)phenyl)thiophen-3-yl)pyridine], the “percent parent remaining after 60 min in liver microsomes” value (from here on “percent parent remaining after 60 min”) in data set [1] is reported as “+++ (>60.1 = +++)”. Further, the “percent of compound remaining after 60 min in human liver microsomes” value (“percent of compound remaining” below) in data set [2] is recorded as “+++ (>60.1 = +++)”. The half-maximal effective concentration (EC50) (as a rule, the midpoint of the concentration-response curve) in data set [3] is over 500 nM.

For `CC(C)S(=O)(=O)c1ccc(-c2cc(-c3ccnc(C(C)(C)C)c3)cs2)cc1` [Compound I-8728, 2-(tert-butyl)-4-(5-(4-(isopropylsulfonyl)phenyl)thiophen-3-yl)pyridine], the “percent parent remaining after 60 min” value in data set [1] is given as “+++ (>60.1 = +++)”. In addition, in data set [2], the “percent of compound remaining” value is “++ (30.1-60 = ++)”. The EC50 in data set [3] lay within 250 to 500 nM.

Regarding `CC(C)(C)c1cc(-c2csc(-c3ccc(S(=O)(=O)CC4CCCC4)cc3)c2)ccn1` [Compound I-8729, 2-(tert-butyl)-4-(5-(4-((cyclopentylmethyl)sulfonyl)phenyl)thiophen-3-yl)pyridine], the “percent parent remaining after 60 min” value in data set [1] is “+ (0-30 = +)”. In addition, the “percent of compound remaining” value in data set [2] is listed as “+ (0-30 = +)”. In data set [3], the EC50 was over 500 nM.

As for `CC(C)NC(=O)Nc1ccc(-c2cc(-c3ccnc(C(C)(C)C)c3)cs2)c(Cl)c1` [Compound I-8731, 1-(4-(4-(2-(tert-butyl)pyridin-4-yl)thiophen-2-yl)-3-chlorophenyl)-3-isopropylurea], the “percent parent remaining after 60 min” value in data set [1] is recorded as “++ (30.1-60 = ++)”. Also, in data set [2], the “percent of compound remaining” value is “++ (30.1-60 = ++)”. For the same compound, the half-maximal effective concentration (EC50) in data set [3] is under 249 nM.

On to `CCOC(=O)Nc1ccc(-c2cc(-c3ccnc(C(C)(C)C)c3)cs2)c(Cl)c1` [Compound I-8735, Ethyl (4-(4-(2-(tert-butyl)pyridin-4-yl)thiophen-2-yl)-3-chlorophenyl)carbamate], for which the “percent parent remaining after 60 min” value in data set [1] is “+++ (>60.1 = +++)”. The “percent of compound remaining” value in data set [2] is given as “+++ (>60.1 = +++)”. In addition, the EC50 in data set [3] lay in the range of 250 to 500 nM.

Take `CC(C)(C)c1cc(-c2csc(-c3ccc(NC(=O)N4CCC(O)CC4)cc3Cl)c2)ccn1` [Compound I-8736, N-(4-(4-(2-(tert-butyl)pyridin-4-yl)thiophen-2-yl)-3-chlorophenyl)-4-hydroxypiperidine-1-carboxamide]: in data set [1], the “percent parent remaining after 60 min” value was “+++ (>60.1 = +++)”. Further, the “percent of compound remaining” value in data set [2] is on record as “+++ (>60.1 = +++)”. Besides, the half-maximal effective concentration (EC50) in data set [3] fell in the range of 250 to 500 nM.

As to `CC(C)OC(=O)Nc1ccc(-c2cc(-c3ccnc(C(C)(C)C)c3)cs2)c(Cl)c1` [Compound I-8741, Isopropyl (4-(4-(2-(tert-butyl)pyridin-4-yl)thiophen-2-yl)-3-chlorophenyl)carbamate], the “percent parent remaining after 60 min” value in data set [1] is reported as “+++ (>60.1 = +++)”. For the same compound, the “percent of compound remaining” value in data set [2] is “+++ (>60.1 = +++)”. Besides, the EC50 in data set [3] was under 249 nM.

With `CC(C)(C)c1cc(-c2csc(-c3ccc(NC(=O)NC4CCC(O)CC4)cc3Cl)c2)ccn1` (stereo not drawn) [Compound I-8742, 1-(4-(4-(2-(tert-butyl)pyridin-4-yl)thiophen-2-yl)-3-chlorophenyl)-3-(4-hydroxycyclohexyl)urea], the “percent parent remaining after 60 min” value in data set [1] is given as “+++ (>60.1 = +++)”. In addition, the “percent of compound remaining” value in data set [2] is reported as “+++ (>60.1 = +++)”. In addition, the EC50 in data set [3] is over 500 nM.

Consider `CC(C)(C)c1cc(-c2csc(-c3ccc(NC(=O)NC4CCNCC4)cc3Cl)c2)ccn1` [Compound I-8755, 1-(4-(4-(2-(tert-butyl)pyridin-4-yl)thiophen-2-yl)-3-chlorophenyl)-3-(piperidin-4-yl)urea], for which the “percent parent remaining after 60 min” value in data set [1] is reported as “+++ (>60.1 = +++)”. Moreover, the “percent of compound remaining” value in data set [2] is recorded as “+++ (>60.1 = +++)”. Also, the EC50 in data set [3] is over 500 nM.

Take `CC(C)(C)c1cc(-c2csc(-c3ccc(NC(=O)NCCN4CCCC4)cc3Cl)c2)ccn1` [Compound I-8761, 1-(4-(4-(2-(tert-butyl)pyridin-4-yl)thiophen-2-yl)-3-chlorophenyl)-3-(2-(pyrrolidin-1-yl)ethyl)urea]: in data set [1], the “percent parent remaining after 60 min” value is on record as “+++ (>60.1 = +++)”. Besides, in data set [2], the “percent of compound remaining” value is recorded as “+++ (>60.1 = +++)”. Also, the concentration for a half-maximal effect (EC50) in data set [3] is over 500 nM.

On to `CC(C)(C)c1cc(-c2csc(-c3ccc(NC(=O)OCCN4CCCC4)cc3Cl)c2)ccn1` [Compound I-8762, 2-(pyrrolidin-1-yl)ethyl (4-(4-(2-(tert-butyl)pyridin-4-yl)thiophen-2-yl)-3-chlorophenyl)carbamate], for which, in data set [1], the “percent parent remaining after 60 min” value is reported as “+ (0-30 = +)”. In data set [2], the “percent of compound remaining” value is “+++ (>60.1 = +++)”. Also, the EC50 in data set [3] is over 500 nM.

Consider `O=S(=O)(Nc1ccc(-c2cc(-c3ccnc(C4(CO)CC4)c3)cs2)c(Cl)c1)NC1CC1` [Compound I-9090], for which the “percent parent remaining after 60 min” value in data set [1] is recorded as “++ (30.1-60 = ++)”. For the same compound, the “percent of compound remaining” value in data set [2] is “++ (30.1-60 = ++)”.

Regarding `CS(=O)(=O)Nc1ccc(-c2cc(-c3ccnc(O[C@@H]4CCC[C@@H]4O)c3)cs2)c(Cl)c1` [Compound I-9111, N-(3-chloro-4-(4-(2-(((1R,2S)-2-hydroxycyclopentyl)oxy)pyridin-4-yl)thiophen-2-yl)phenyl)methanesulfonamide], in data set [1], the “percent parent remaining after 60 min” value is “+++ (>60.1 = +++)”. In data set [2], the “percent of compound remaining” value is “+++ (>60.1 = +++)”.

Regarding `CS(=O)(=O)Nc1ccc(-c2cc(-c3ccnc(OCCC4(O)COC4)c3)cs2)c(Cl)c1` [Compound I-9112, N-(3-chloro-4-(4-(2-(2-(3-hydroxyoxetan-3-yl)ethoxy)pyridin-4-yl)thiophen-2-yl)phenyl)methanesulfonamide], in data set [1], the “percent parent remaining after 60 min” value is “+++ (>60.1 = +++)”. In addition, the “percent of compound remaining” value in data set [2] was “+++ (>60.1 = +++)”.

Take `CS(=O)(=O)Nc1ccc(-c2cc(-c3ccnc(OCC4COCCO4)c3)cs2)c(Cl)c1` (stereo not drawn) [Compound I-9113, N-(4-(4-(2-((1,4-dioxan-2-yl)methoxy)pyridin-4-yl)thiophen-2-yl)-3-chlorophenyl)methanesulfonamide]: in data set [1], the “percent parent remaining after 60 min” value is given as “+++ (>60.1 = +++)”. The “percent of compound remaining” value in data set [2] was “++ (30.1-60 = ++)”.

As to `CC(C)(CO)c1cc(-c2cc(-c3ccc(NC(=O)OC4CC4)cc3Cl)cs2)ccn1` [Compound I-9161, Cyclopropyl(3-chloro-4-(5-(2-(1-hydroxy-2-methylpropan-2-yl)pyridin-4-yl)thiophen-3-yl)phenyl)carbamate], the “percent parent remaining after 60 min” value in data set [1] was “++ (30.1-60 = ++)”. In data set [2], the “percent of compound remaining” value is “++ (30.1-60 = ++)”.

In the case of `CC(C)NS(=O)(=O)Nc1ccc(-c2csc(-c3ccnc(C(C)(C)CO)c3)c2)c(Cl)c1` [Compound I-9162, 2-(4-(4-(2-chloro-4-(((isopropylamino)thio)amino)phenyl)thiophen-2-yl)pyridin-2-yl)-2-methylpropan-1-ol, S,S-dioxide], the “percent parent remaining after 60 min” value in data set [1] was “+++ (>60.1 = +++)”. In addition, the “percent of compound remaining” value in data set [2] is “+ (0-30 = +)”.
